Source: PMC10895674, “First-in-Class Dual EZH2-HSP90 Inhibitor Eliciting Striking Antiglioblastoma Activity In Vitro and In Vivo” (Journal of Medicinal Chemistry, 2024)
Read-outs that look alike come from different tables or passages of the source.

Columns and labels:
HSP90a = HSP90a (Homo sapiens, UniProt P07900); experiment: In vitro Hsp90 assay (Reaction Biology Corp.); assay type: biochemical; conditions: 10-dose IC50 mode, 3-fold serial dilution starting at 10 μM, single experiment; '-' read as no inhibition
Method: The HSP90 inhibitory activity of the synthesized adduct was assessed by Reaction Biology Corporation Malvern, PA. (http://www.reactionbiology.com).

[1] = system: TMZ-resistant cells (Pt3R); experiment: Cell viability CCK8 assay; assay type: cell-based, human; conditions: Homo sapiens, 72 h, CCK8, read-out: IC50, cell growth inhibitory effects
Source text: The CCK8 reagent was purchased from TargetMOI (Wellesley Hills, MA) and used according to the manufacturer’s instruction.

TMZ-resistant Pt3R cells = experiment: RNA-seq gene expression profile (and cell morphology) after 48 h; assay type: cell-based, human
Method: To gain insights regarding the ability of dual inhibitor 7 to suppress the viability of TMZ-resistant GBM cells, RNA-seq to analyze gene expression profiles was performed.
Figure 7 Effect of compound 7 on gene expression profile in TMZ-resistant Pt3R cells. […] (B) GSEA functionally grouped genes. (C) Genes involved in apoptosis/necrosis and M phase/Kinetochore/Spindle were clustered in the heatmap.
RNA was isolated using the RNA extracting kit (Zymo Research, Irvine, CA) and subjected to RNA-seq serviced by BIOTOOLS Co., Ltd. (New Taipei City, Taiwan). Cell pellets were collected and subjected to proteomic analysis serviced by BIOTOOLS Co., Ltd. The comparison in gene expression between Pt3 and Pt3R was performed using RNA seq and described previously.[60]

Pt3R cells [2] = experiment: Western blotting; assay type: cell-based, human
Method: Furthermore, the impact of compound 7 treatment on centromere proteins (CENPs) was assessed. As such, CENPs are the main constituent proteins of the kinetochore, which are essential for cell division. CENPs expression is elevated in GBM tissues and correlated with unfavorable overall survival in glioma patients.[53]
Thus, the ability of compound 7 to disturb redox homeostasis in TMZ-resistant cells and attain amplified therapeutic efficacy for GBM was evaluated. In both Pt3 and Pt3R cells, treatment with compound 7 for 48 h increased the ROS level (Figure 10A). […] Moreover, it was also observed that compound 7 increased mitochondria-derived ROS.
The detailed procedure was described in our previous study.[54],[55],[58],[59] Primary antibodies, anti-CENPA, anti-CENPE, anti-CENPF, and anti-CENPI antibodies, were purchased from abcam (Cambridge, U.K.); anti-CDK1 and anticyclin B1 antibodies were purchased from Santa Cruz Biotechnology, Inc. (Dallas, TX); and anti-EZH2 and anti-H3K27^me3 antibodies were purchased from GeneTex International Corporation (HsinChu, Taiwan), anti-Caspase-3 was purchased from GeneTex International Corporation; anti-cleaved Caspase-3 was purchased from Cell Signaling Technology (Danvers, Massachusetts).

Pt3R cells [3] = experiment: Cell cycle analysis (PI staining, flow cytometry); assay type: cell-based, human; conditions: 24 h treatment (Figure 8E)
Method: Figure 8 Compound 7 suppresses gene expression of CENP family. (A) Compound 7-suppressed CENP family. (B) Gene expression of CENP family in Pt3 and TMZ-resistant Pt3R cells. (C) Prognostic value was analyzed using the GlioVis Web site. (D) Western blotting was used to confirm that compound 7 decreased CENPs expression. (E) Cell cycle analysis. After treatment for 24 h, cells were stained with propidium iodide (PI) and subjected to flow cytometry analysis.

[4] = Pharmacokinetics IV and PO; set-up: species or system Rat; conditions: in vivo
Method: Table S1: Pharmacokinetic data of compound 7
Rat IV (dose: 2 mg/kg) Rat PO (dose: 20 mg/kg)
T1/2 CL Vss AUC(0-inf) T1/2 Cmax Tmax AUC(0-inf) F
(hr) (ml/min/kg) (l/kg) (ng/mL*hr) (hr) (ng/ml) (hr) (ng/mL*hr) (%)
Sample Time (hr) Avg. S.D.

[5] = system: blood–brain barrier (BBB); experiment: BBB permeability (chamber coated with endothelial cells and astrocytes, MTT of Pt#3-R in lower chamber); assay type: in vitro ADME; conditions: upper chamber, 72 h; 0, 1, 5, 10 (mM printed); viability of Pt#3-R in lower chamber by MTT
Method: Fig. S1 Compound 7 was added in the upper chamber coated with endothelial cells and astrocytes, and incubated
for 72 h. Subsequently, the viability of Pt#3-R in the lower chamber was analyzed by the MTT assay. As shown […]

[6] = Rat IV 2 mg/kg, read-out: Drug Conc. Avg.
[7] = Rat PO 20 mg/kg, read-out: Drug Conc. Avg.

CCN(c1cc(-c2cccc(N(C)C(=O)c3cc(C(C)C)c(O)cc3O)c2)cc(C(=O)NCc2c(C)cc(C)[nH]c2=O)c1C)C1CCOCC1 [Compound 7, 3′-(2,4-Dihydroxy-5-isopropyl-N-methylbenzamido)-N-((4,6-dimethyl-2-oxo-1,2-dihydropyridin-3-yl)methyl)-5-(ethyl(tetrahydro-2H-pyran-4-yl)amino)-4-methyl-[1,1′-biphenyl]-3-carboxamide]
IC50 (HSP90a): 60.1 nM | IC50 [1]: 1010 ± 690 nM | centromere proteins (CENPs) CENPF, CENPE, CENPA, CENPI gene expression (TMZ-resistant Pt3R cells; Pt3R (Figure 8C)): decreased | RBBP8 and BRCA1 gene expression (TMZ-resistant Pt3R cells; Pt3R (Figure 9A)): suppressed | genes regulating homologous recombination (TOP2A, RAD54B, RAD21, EME1, BRIP1) (TMZ-resistant Pt3R cells; Pt3R (Figure 9H)): suppressed | number of gene expressions decreased (RNA-seq) (TMZ-resistant Pt3R cells; Pt3R, 2 μM, 48 h): 498 | number of gene expressions increased (RNA-seq) (TMZ-resistant Pt3R cells; Pt3R, 2 μM, 48 h): 297 | cell proliferation (TMZ-resistant Pt3R cells; Pt3R, 2 μM, 48 h (Figure 7A)): significantly inhibited cell proliferation | M phase/kinetochore/spindle-related gene expression (TMZ-resistant Pt3R cells; Pt3R, 48 h): decreased | apoptosis/necrosis-related gene expression (TMZ-resistant Pt3R cells; Pt3R, 48 h): increased | EZH2 expression and EZH2-modulated H3K27 trimethylation (Pt3R cells [2]; Figure 10B): inhibited | proteins involved in cleaning ROS (catalase, SOD1, glutathione reductase, GPX1) (Pt3R cells [2]; Figure 10B): decreased | expression of cleaved caspase-3 (Pt3R cells [2]; Figure 10D): upregulate | CENPs protein expression (Pt3R cells [2]; Pt3R (Figure 8D)): decreased | expression of CDK1 and cyclin B1 (Pt3R cells [2]; Pt3R (Figure 8D)): downregulated | cell cycle (Pt3R cells [3]): induced cell cycle arrest at the M phase | concentration at 0.03 hr ([4]; Rat IV 2 mg/kg, 0.03 hr, read-out: Drug Conc. Avg.): 2790 ng/mL | concentration at 0.08 hr ([4]; Rat IV 2 mg/kg, 0.08 hr, read-out: Drug Conc. Avg.): 929 ng/mL | concentration at 0.25 hr [4, 6]: 406 ng/mL | concentration at 0.5 hr [4, 6]: 218 ng/mL | concentration at 1 hr [4, 6]: 76.6 ng/mL | concentration at 2 hr [4, 6]: 30.5 ng/mL | concentration at 4 hr [4, 6]: 5 ng/mL | concentration at 6 hr [4, 6]: 1.1 ng/mL | AUC(0-inf) ([4]; Rat IV, dose 2 mg/kg): 470 ± 32 ng·h/mL | clearance ([4]; Rat IV, dose 2 mg/kg): 81.8 ± 5.8 mL/min/kg | half-life ([4]; Rat IV, dose 2 mg/kg): 0.8 h | Vd ([4]; Rat IV, dose 2 mg/kg, read-out: Vss): 3 ± 0.5 L/kg | bioavailability ([4]; Rat PO 20 mg/kg vs IV 2 mg/kg): 2.3% | concentration at 0.25 hr [4, 7]: 23 ng/mL | concentration at 0.5 hr [4, 7]: 11.1 ng/mL | concentration at 1 hr [4, 7]: 23.8 ng/mL | concentration at 2 hr [4, 7]: 15.3 ng/mL | concentration at 4 hr [4, 7]: 18.1 ng/mL | concentration at 6 hr [4, 7]: 4 ng/mL | concentration at 8 hr ([4]; Rat PO 20 mg/kg, 8 hr, read-out: Drug Conc. Avg.): 2.9 ng/mL | AUC(0-inf) ([4]; Rat PO, dose 20 mg/kg): 106 ± 62 ng·h/mL | Cmax ([4]; Rat PO, dose 20 mg/kg): 23.8 ± 8.9 ng/mL | Tmax ([4]; Rat PO, dose 20 mg/kg): 1 h | half-life ([4]; Rat PO, dose 20 mg/kg): 1.8 ± 0.5 h | BBB penetration [5]: able to penetrate blood–brain barrier (BBB)
